Test results from US20230159511A1, “TETRAHYDROISOQUINOLINE COMPOUNDS AS NRF2 ACTIVATORS” (C4X Discovery Limited, priority 2020, published 2023).

Tests used:
[1] = system: NRF2 mediated gene NAD(P)H:quinone acceptor oxidoreductase 1 (NQO1) in BEAS-2B cells; assay: Beas2B NQO1 mRNA Cell Based Assay; set-up: species or system human; conditions: Homo sapiens; BEAS-2B cells, compound for 24 h; increase in NQO1 mRNA compared to vehicle (0.1% DMSO) control; read-out: EC50
Description: Beas2B NQO1 mRNA Cell Based Assay
The up regulation of the NRF2 mediated gene NAD(P)H:quinone acceptor oxidoreductase 1 (NQO1) was measured using the following assay method: BEAS-2B cells (ATCC CRL-9609) were plated in 96-well clear plates at 20,000 cells/well in 75 μL of cell culture media and incubated overnight (37° C., 5% CO2). On day 2, 25 μL of compound or controls were added to the cells for 24 h. On day 3, the medium was aspirated from the plate and the Cells-to-CT™ 1-Step TaqMan® Kit (Ambion A25603) was used to perform expression analysis directly from cultured cells without RNA purification according to the manufacturer's instructions.
Briefly, cells were washed with ice cold PBS and 22.5 μL of room-temperature DNase/Lysis solution was added to the cells and incubated at room temperature for 5 minutes. To stop the reaction, 2.25 μL of stop solution was added to the cell lysate. The samples were diluted 1:5 using nuclease free water and 2.5 μL transferred into the PCR plate. Real-time PCR was performed using the C-1000 Thermal Cycler (Bio-Rad) using human beta actin as the internal control. The cDNA was amplified with a specific primer for NQO1 using the 1-step RT-PCR master mix (Ambion Cells-to-CTTM 1-Step TaqMan® Kit A25603). The primers/probes sets that were used for amplification of cDNA were obtained from TaqMan Gene Expression Assays (Applied Biosystems). The comparative CT (ΔΔCT) relative quantification method was used to calculate the relative mRNA level of the target gene NQO1 as described in the Applied Biosystems Chemistry Guide. The data are expressed as an increase in target gene mRNA compared to vehicle (0.1% DMSO) control and the EC50 values were determined by fitting the data to a four parameter logistic fit using XLfit or XE Runner within ActivityBase.

[2] = target: T1, human KEAP1 (N-term, residues 321-609) (Homo sapiens, UniProt Q14145); assay: KEAP1 Kelch Fluorescence Polarization (FP) Assay; format: binding; conditions: inhibition of Kelch domain-NRF2 interaction; 2 nM FITC-labelled NRF2 peptide, 25 nM KEAP1, 1 h room temperature; compounds below 10 nM cannot be differentiated
T1 construct: human KEAP1 (N-term, residues 321-609)
Description: KEAP1 Kelch Fluorescence Polarization (FP) Assay Method
Inhibition of the Kelch domain-NRF2 interaction was determined using a fluorescence polarization-based competition assay in a black 384-well microplate. Compounds were tested at a starting concentration of 10 μM serially diluted 1:3 to generate a 12-point dose response curve on the Biomek FX robot. Each well contained 2 nM FITC-labelled NRF2 peptide (FITC-LDEETGEFL-NH2) and 25 nM human KEAP1 (N-term, residues 321-609) enzyme in a final volume of 20 μL of assay buffer (50 mM Tris-HCl pH 8.0, 100 mM NaCl, 5 mM MgCl2, 0.005% Tween-20, 0.005% BSA, 0.5% DMSO) in the presence of varying concentrations of test compound. Unlabelled peptide (LDEETGEFL-NH2) at 50 μM (negative control) and 0.5% DMSO (positive control) was used to determine the assay window.
After 1 h at room temperature, fluorescence polarization (excitation 470 nm/emission 530 nm) was measured using an Envision plate reader. IC50 values were determined by fitting the data to a four parameter logistic fit using XLfit or XE Runner within ActivityBase. The assay limit is such that compounds below 10 nM cannot be differentiated.

T1 sequence (Q14145 321-609): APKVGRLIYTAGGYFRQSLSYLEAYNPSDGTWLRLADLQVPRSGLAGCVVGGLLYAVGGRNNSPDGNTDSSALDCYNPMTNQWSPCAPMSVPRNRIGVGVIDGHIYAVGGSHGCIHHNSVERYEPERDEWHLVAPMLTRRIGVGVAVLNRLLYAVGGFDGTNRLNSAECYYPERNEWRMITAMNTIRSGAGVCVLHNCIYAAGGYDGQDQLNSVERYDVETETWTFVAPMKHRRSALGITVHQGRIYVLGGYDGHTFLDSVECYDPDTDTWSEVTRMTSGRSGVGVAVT

IC50 [2] [nM] | Compound | EC50 [1] [nM]
18 | CNC(=O)C1CCCC1C(=O)N1CCc2c(Cl)ccc(OCc3nnn(C)c3C(F)F)c2[C@H]1CN1CCCC1=O (single isomer, unassigned) [Example 65] | 1860
4070 | CNC(=O)C1OCCC1C(=O)N1CCc2c(Cl)ccc(OCc3nnn(C)c3C(F)F)c2[C@H]1CN1CCCC1=O (single isomer, unassigned) [Example 82] | 1740
23 | CNC(=O)[C@@]1(C)CCC[C@H]1C(=O)N1CCc2c(Cl)ccc(OCc3nnn(C)c3C(F)F)c2[C@H]1CN1CCC(C)C1=O (single isomer, unassigned) [Example 95] | 565
37 | CNC(=O)[C@@]1(C)CCCC[C@H]1C(=O)N1CCc2c(Cl)ccc(OCc3nnn(C)c3C(F)F)c2[C@H]1CN1CCC(C)C1=O (single isomer, unassigned) [Example 96] | 3190
196 | CCNC(=O)[C@H]1CCCC[C@H]1C(=O)N1CCc2cccc(OCCNC(=O)c3cc(C)on3)c2[C@H]1CN1C(=O)c2ccccc2C1=O [Example 6, N-(2-(((S)-1-((1,3-dioxoisoindolin-2-yl)-methyl)-2((1R,2S)-2-(ethylcarbamoyl)cyclohexane-1-carbonyl)-1,2,3,4-tetrahydroisoguinolin-8-yl)oxy)ethyl)-5-methylisoxazole-3-carboxamide] | 2360
28 | CNC(=O)[C@H]1CCCC[C@H]1C(=O)N1CCc2cccc(O[C@H]3CCN(C(=O)c4cncs4)C3)c2[C@H]1CN1C(=O)c2ccccc2C1=O [Example 17, (1S,2R)-2-((S)-1-((1,3-dioxoisoindolin-2-yl)methyl)-8-(((S)-1-(thiazole-5-carbonyl)pyrrolidin-3-yl)oxy)-1,2,3,4-tetrahydroisoquinoline-2-carbonyl)-N-methylcyclohexane-1-carboxamide] | 3070
29 | CNC(=O)[C@H]1CCCC[C@H]1C(=O)N1CCc2cccc(O[C@H]3CCN(C(=O)c4cc(C)on4)C3)c2[C@H]1CN1C(=O)c2ccccc2C1=O [Example 20, (1S,2R)-2-((S)-1-((1,3-dioxoisoindolin-2-yl)methyl)-8-(((S)-1-(5-methylisoxazole-3-carbonyl)pyrrolidin-3-yl)oxy)-1,2,3,4-tetrahydroisoquinoline-2-carbonyl)-N-methylcyclohexane-1-carboxamide] | > 500
36 | O=C(NCC(F)(F)CO)[C@H]1CCCC[C@H]1C(=O)N1CCc2cccc(O[C@H]3CCN(C(=O)c4cncs4)C3)c2[C@H]1CN1C(=O)c2ccccc2C1=O [Example 34, (1S,2R)-N-(2,2-difluoro-3-hydroxypropyl)-2-((S)-1-((1,3-dioxoisoindolin-2-yl)methyl)-8-(((S)-1-(thiazole-5-carbonyl)pyrrolidin-3-yl)oxy)-1,2,3,4-tetrahydroisoquinoline-2-carbonyl)cyclohexane-1-carboxamide] | 193
53 | CCNC(=O)[C@H]1CCCC[C@H]1C(=O)N1CCc2cccc(O[C@H]3CCN(C(=O)c4cncs4)C3)c2[C@H]1CN1C(=O)c2ccccc2C1=O [Example 42, (1S,2R)-2-((S)-1-((1,3-dioxoisoindolin-2-yl)methyl)-8-(((S)-1-(thiazole-5-carbonyl)pyrrolidin-3-yl)oxy)-1,2,3,4-tetrahydroisoquinoline-2-carbonyl)-N-ethylcyclohexane-1-carboxamide] | 580
83 | CNC(=O)[C@H]1CCCC[C@H]1C(=O)N1CCc2cccc(OCCCC(=O)O)c2[C@H]1CN1C(=O)c2ccccc2C1=O [Example 46, 4-(((S)-1-((1,3-dioxoisoindolin-2-yl)methyl)-24(1 R,2S)-2-(methylcarbamoyncyclohexane-1-carbonyl)-1,2,3,4-tetrahydroisoquinolin-8-yl)oxy)butanoic acid] | 
5330 | CCC(=O)NC[C@@H]1c2c(cccc2O[C@H]2CCN(C(=O)c3cncs3)C2)CCN1C(=O)[C@@H]1CCCC[C@@H]1C(=O)NC [Example 47, (1S,2R)-N-methyl-2-((S)-1-(propionamidomethyl)-8-(((S)-1-(thiazole-5-carbonyl)pyrrolidin-3-yl)oxy)-1,2,3,4-tetrahydroisoquinoline-2-carbonyl)cyclohexane-1-carboxamide] | 
728 | CNC(=O)[C@H]1CCCCN1C(=O)N1CCc2cccc(O[C@H]3CCN(C(=O)c4cncs4)C3)c2[C@H]1CN1C(=O)c2ccccc2C1=O [Example 48] | 
1800 | CNC(=O)[C@H]1CCCC[C@H]1C(=O)N1CCc2cccc(OCc3cnn(C)c3)c2[C@H]1CN1C(=O)c2ccccc2C1=O [Example 49, (1S,2R)-2-((S)-1-((1,3-dioxoisoindolin-2-yl)methyl)-8-((1-methyl-1H-pyrazol-4-yl)methoxy)-1,2,3,4-tetrahydroisoquinoline-2-carbonyl)-N-methylcyclohexane-1-carboxamide] | 
72 | CNC(=O)[C@H]1CCCC[C@H]1C(=O)N1CCc2c(Br)ccc(O[C@H]3CCN(C(C)=O)C3)c2[C@H]1CN1C(=O)c2ccccc2C1=O [Example 50, (1S,2R)-2-((S)-8-(((S)-1-acetylpyrrolidin-3-yl)oxy)-5-bromo-1-((1,3-dioxoisoindolin-2-yl)methyl)-1,2,3,4-tetrahydroisoquinoline-2-carbonyl)-N-methylcyclohexane-1-carboxamide] | 
1700 | COC(=O)N1CCC[C@H]1C(=O)N1CCc2cccc(O[C@H]3CCN(C(=O)c4cncs4)C3)c2[C@H]1CN1C(=O)c2ccccc2C1=O [Example 51, methyl (S)-2-((S)-1-((1,3-dioxoisoindolin-2-yl)methyl)-8-(((S)-1-(thiazole-5-carbonyl)pyrrolidin-3-yl)oxy)-1,2,3,4-tetrahydroisoquinoline-2-carbonyl)pyrrolidine-1-carboxylate] | 
38 | CNC(=O)[C@H]1CCCC[C@H]1C(=O)N1CCc2c(Cl)ccc(OCc3noc4ccccc34)c2[C@H]1CN1CCCC1=O [Example 52, (1S,2R)-2-((S)-8-(benzo[d]isoxazol-3-ylmethoxy)-5-chloro-1-((2-oxopyrrolidin-1-yl)methyl)-1,2,3,4-tetrahydroisoquinoline-2-carbonyl)-N-methylcyclohexane-1-carboxamide] | 285
47 | CCNC(=O)[C@H]1CCCC[C@H]1C(=O)N1CCc2c(Cl)ccc(OCc3noc4ccccc34)c2[C@H]1CN1CCCC1=O [Example 53, (1S,2R)-2-((S)-8-(benzo[d]isoxazol-3-ylmethoxy)-5-chloro-1-((2-oxopyrrolidin-1-yl)methyl)-1,2,3,4-tetrahydroisoquinoline-2-carbonyl)-N-ethylcyclohexane-1-carboxamide] | 189
533 | CNC(=O)[C@H](C)[C@@H](C)C(=O)N1CCc2c(Cl)ccc(OCc3noc(C(C)C)n3)c2[C@H]1CN1CCCC1=O [Example 59, (2R,3R)-4-((S)-5-chloro-8-((5-isopropyl-1,2,4-oxadiazol-3-yl)methoxy)-1-((2-oxopyrrolidin-1-yl)methyl)-3,4-dihydroisoquinolin-2(1H)-yl)-N,2,3-trimethyl-4-oxobutanamide] | 

Compound | IC50 [2] [nM] | EC50 [1] [nM]
NC(=O)[C@H]1CCCC[C@H]1C(=O)N1CCc2cccc(OCCCC(=O)N3CCCC3)c2[C@H]1CN1C(=O)c2ccccc2C1=O [Example 1, (1S,2R)-2-((S)-1-((1 ,3-dioxoisoindolin-2-yl)methyl)-8-(4-oxo-4-(pyrrolidin-1-yl)butoxy)-1,2,3,4-tetrahydroisoquinoline-2-carbonyl)cyclohexane-1-carboxamide] | 901 | 2030
